In ChEMBL document CHEMBL1138166, “Synthesis and antimycobacterial activity of some alkyl [5-(nitroaryl)-1,3,4-thiadiazol-2-ylthio]propionates” (2006):
Values after ≈ are worked out from the molar mass of the structure shown. Active and inactive are the calls of the source. The rule behind the calls is not given here.

System: Mycobacterium tuberculosis
Test: Antimycobacterial activity against Mycobacterium tuberculosis H37Rv by microplate alamar blue assay
Format: functional
Conditions: for MIC: Mycobacterium tuberculosis, H37Rv

Row | SMILES | Activity | Inhibition [%] | MIC [µg/mL]
1 | CCOC(=O)C(C)Sc1nnc(-c2ccc([N+](=O)[O-])s2)s1 (stereo not drawn) | Active | 92 | 6.25 (≈ 18.1 µM)
2 | CCOC(=O)C(C)[S+]([O-])c1nnc(-c2ccc([N+](=O)[O-])s2)s1 (stereo not drawn) | inactive | 12 | > 6.25
3 | CCOC(=O)CCSc1nnc(-c2ccc([N+](=O)[O-])o2)s1 | inactive | 14 | > 6.25
4 | CCOC(=O)C(C)Sc1nnc(-c2ccc([N+](=O)[O-])o2)s1 (stereo not drawn) | Active | 98 | 6.25 (≈ 19 µM)
5 | CCOC(=O)C(C)S(=O)(=O)c1nnc(-c2ccc([N+](=O)[O-])o2)s1 (stereo not drawn) | inactive | 78 | > 6.25
6 | COC(=O)CCSc1nnc(-c2ccc([N+](=O)[O-])o2)s1 | inactive | 64 | > 6.25
7 | CCOC(=O)CCSc1nnc(-c2ccc([N+](=O)[O-])s2)s1 | inactive | 26 | > 6.25
8 | CCOC(=O)C(C)S(=O)(=O)c1nnc(-c2ncc([N+](=O)[O-])n2C)s1 (stereo not drawn) | Active | 100 | 3.12 (≈ 8.31 µM)
9 | COC(=O)CCSc1nnc(-c2ccc([N+](=O)[O-])s2)s1 | inactive | 76 | > 6.25
10 | O=C(O)CCSc1nnc(-c2ccc([N+](=O)[O-])s2)s1 | inactive | 0 | > 6.25
11 | CCOC(=O)C(C)[S+]([O-])c1nnc(-c2ncc([N+](=O)[O-])n2C)s1 (stereo not drawn) | inactive | 11 | > 6.25
12 | CCOC(=O)C(C)Sc1nnc(-c2ncc([N+](=O)[O-])n2C)s1 (stereo not drawn) | Active | 90 | 6.25 (≈ 18.2 µM)
13 | CCCCOC(=O)CCSc1nnc(-c2ccc([N+](=O)[O-])s2)s1 | Active | 98 | 6.25 (≈ 16.7 µM)
14 | O=C(O)CCSc1nnc(-c2ccc([N+](=O)[O-])o2)s1 | Active | 95 | 6.25 (≈ 20.7 µM)
15 | CCCCOC(=O)CCSc1nnc(-c2ccc([N+](=O)[O-])o2)s1 | inactive | 0 | > 6.25
16 | CO[C@H]1/C=C/O[C@@]2(C)Oc3c(C)c(O)c4c(O)c(c(/C=N/N5CCN(C)CC5)c(O)c4c3C2=O)NC(=O)/C(C)=C\C=C\[C@H](C)[C@H](O)[C@@H](C)[C@@H](O)[C@@H](C)[C@H](OC(C)=O)[C@@H]1C [RIFAMPIN] | – | – | 0.5 (≈ 0.608 µM)
17 | CCOC(=O)C(C)[S+]([O-])c1nnc(-c2ccc([N+](=O)[O-])o2)s1 (stereo not drawn) | inactive | 6 | > 6.25
18 | CCCOC(=O)CCSc1nnc(-c2ccc([N+](=O)[O-])s2)s1 | Active | 98 | 1.56 (≈ 4.34 µM)
19 | CCCOC(=O)CCSc1nnc(-c2ccc([N+](=O)[O-])o2)s1 | inactive | 0 | > 6.25
20 | CCOC(=O)C(C)S(=O)(=O)c1nnc(-c2ccc([N+](=O)[O-])s2)s1 (stereo not drawn) | inactive | 82 | > 6.25
